Laboratory results: patent US7220746B2, “Pyrrolidinedione substituted piperidine-phthalazones as PDE4 inhibitors” (Altana Pharma AG, priority 2002, dated 2007)

Test system: PDE4 activity (cytosol from human neutrophils)
Assay: Inhibition of PDE4 activity
Assay type: biochemical
Design: unit not given here
Conditions: 0.5 μM cAMP, Motapizone 1 μM included to suppress PDE3
Protocol: Method for Measuring Inhibition of PDE4 Activity
PDE4 activity was determined as described by Thompson et al. (Adv Cycl Nucl Res 10: 69–92, 1979) with some modifications (Bauer and Schwabe, Naunyn-Schmiedeberg's Arch Pharmacol 311: 193–198, 1980). At a final assay volume of 200 μl (96well microliter plates) the assay mixture contained 20 mM Tris (pH 7.4), 5 mM MgCl2, 0.5 μM cAMP, [^3H]CAMP (about 30,000 cpm/assay), the test compound and an aliquot of cytosol from human neutrophils which mainly contains PDE4 activity as described by Schudt et al. (Naunyn-Schmiedeberg's Arch Pharmacol 344: 682–690, 1991); the PDE3-specific inhibitor Motapizone (1 μM) was included to suppress PDE3 activity originating from contaminating platelets. […]
After preincubation for 5 min at 37° C., the reaction was started by the addition of substrate (cAMP) and the assays were incubated for further 15 min at 37° C. […] The columns were eluted with 2 ml of 30 mM ammonium formiate (pH 6.0) and the eluate was counted for radioactivity. Results were corrected for blank values (measured in the presence of denatured protein) which were below 5% of total radioactivity. […] The IC50-values for the compounds according to the invention for the inhibition of the PDE4 activity were determined from the concentration-inhibition curves by nonlinear-regression.

COc1ccc(C2=NN(C3CCN(C(=O)CN4C(=O)CCC4=O)CC3)C(=O)[C@@H]3CC=CC[C@H]23)cc1OC [Example 1, 1-(2-{4-[(4aS,8aR)-4-(3,4-Dimethoxy-phenyl)-1-oxo-4a,5,8,8a-tetrahydro-yl]-piperidin-1-yl}-2-oxo-ethyl)-pyrrolidine-2,5-dione]
Inhibition of PDE4 activity, −logIC50: 10.66
